“Also recorded” adds a separate entry of the source. Read-outs that look alike come from different tables or passages of the source.
Experiments:
liver grafts [1] = format: in vivo; settings: grafts washed with 50 μmol/L bilirubin-containing Ringer's solution
Protocol: (§1) To examine in vivo effects of HO-1 preconditioning, a model experiment for liver isograft transplantation was carried out. Male inbred Lewis rats of 220-280 g were allowed to drink water without any restriction, fasted for 24 hours before the experiment, and provided for use as donors and recipients for liver transplantation. In HO-1 preconditioning groups, the rats were hemin-treated at 18 hours before graft preparation in the same manner as used in the ex vivo experiment of Example 1. Liver transplantation was performed according to the technique developed by Kamada (see Document 25) with minor modifications. More specifically, the donors were anesthetized by intraperitoneal injection of pentobarbital sodium (40 mg/kg body weight) and then laparotomized. […]
(§2) In light of Example 7 showing that short-term washing with bilirubin was effective for recovery of post-reperfusion stasis and cell injury in the liver grafts cold-preserved for 16 hours, further attempts were made to examine the in vivo effect of bilirubin washing against post-transplantation injury in the cold-preserved grafts. […] The level of bile output was measured at 30 minutes and 24 hours after initiation of reperfusion. To determine the degree of graft injury at 24 hours after initiation of reperfusion, blood levels of aspartate aminotransferase (AST), alanine aminotransferase (ALT) and LDH were measured in a standard manner. […]

liver parenchymal cells = experiment: Immunohistological detection of bilirubin in graft tissue with monoclonal antibody 24G7; format: in vivo, rat
Protocol: To examine the effect of bilirubin washing on the accessibility of bilirubin to graft tissues, immunohistological detection of bilirubin was performed using the anti-bilirubin-IXα monoclonal antibody 24G7 according to a previously reported method of the inventors (see Document 27). As observed in the grafts perfused with bilirubin-free lactated Ringer's solution (A), the monoclonal antibody 24G7 triggered an immune reaction primarily in liver non-parenchymal cells including Kupffer cells.

liver grafts [2] = experiment: LDH released into hepatic venous perfusate of ex vivo reperfused liver grafts (liver cell damage); set-up: species or system rat
Protocol: As in the case of Example 5, after being cold-preserved for 16 hours, the hemin-treated grafts were reperfused for 30 minutes in the presence of ZnPP using reperfusate containing varying concentrations of bilirubin, and then measured for the amount of lactate dehydrogenase (LDH) released into the hepatic venous perfusate, which was indicative of liver cell damage in the grafts. For use as controls, hemin-untreated grafts receiving 16-hour cold preservation (C16) and hemin-treated grafts receiving 16-hour cold preservation (Hemin/C16) were provided in the absence of ZnPP. The amount of LDH was measured as described in an earlier document (see Document 24). […] The grafts were divided into the following test groups: (a) receiving 5 minute reperfusion with the bilirubin-containing buffer and subsequent 35 minute reperfusion in the absence of bilirubin, (b) receiving 15 minute reperfusion with the bilirubin-containing buffer and subsequent 25 minute reperfusion in the absence of bilirubin, and (c) receiving 40 minute perfusion with the bilirubin-containing buffer. As a control group (d), the cold-preserved grafts received only bilirubin-free perfusion for 40 minutes. Bile output was then measured over time for each group. Further, FIGS. 6(B) and (C) show the relationship between reperfusion time with the bilirubin-containing buffer and bile output from the grafts and the relationship between reperfusion time and venous LDH concentration, respectively.

liver grafts [3] = experiment: Bile output of cold-preserved liver grafts during ex vivo reperfusion; set-up: species or system rat; settings: for bile output vs bilirubin-free control: hemin-untreated C16 grafts, 5 μmol/L bilirubin
Protocol: The rats injected with hemin or physiological saline were anesthetized by intraperitoneal injection of pentobarbital sodium (40 mg/kg body weight) and a PE-10 catheter for bile sample collection was inserted into the common bile duct of each rat. A 16-gauge catheter was inserted into the portal vein and 20 ml lactated Ringer's solution kept at 4° C. was passed through the catheter. Subsequently, rat livers were perfused with 20 ml University of Wisconsin solution (UW solution) of 4° C., excised and then preserved in the same solution at 4° C. for 16 hours. […] After cold preservation for 16 hours, each liver graft was reperfused via the portal vein with 95% oxygen-5% carbon dioxide-saturated Krebs-Henseleit buffer (pH 7.4, 37° C.) at 4 ml/min/g liver in the presence of 30 μmol/L sodium taurocholate (see Document 4).
In the hemin-treated liver grafts from Example 1, after 16-hour cold preservation (Hemin/C16), bile samples were collected from the common bile duct every 5 minutes during 40 minute reperfusion. […] The hemin-untreated grafts receiving no cold preservation (Control) and 16-hour cold preservation (C16) were also provided for the same measurement.
The grafts were reperfused with carbogen-saturated Krebs-Henseleit buffer (pH 7.4, 37° C.) supplemented with bilirubin (Sigma Chemical, Co.) and/or CO in combination with 1 μmol/L ZnPP. […] Similarly, hemin-untreated (a) and hemin-treated (b) grafts were provided in the absence of ZnPP for use as controls.
The same experiment as described in Example 4 was repeated, except that the doses of bilirubin and/or CO were varied. After being cold-preserved for 16 hours, the hemin-treated grafts were reperfused for 30 minutes in the presence of ZnPP using reperfusate containing various concentrations of bilirubin and/or CO, and then measured for the levels of bile output, bile salts and phospholipids in bile from the grafts, which were determined in percentages relative to those obtained by reperfusion in the absence of ZnPP.

liver grafts [4] = experiment: Liver isograft transplantation model: blood levels of AST, ALT and LDH (graft injury); format: in vivo, rat; settings: washing with irrigation solution containing a higher concentration of bilirubin than 5 to 10 μmol/L
Protocol: as §1, §2

liver grafts [5] = experiment: Liver isograft transplantation model: bile output after initiation of reperfusion; format: in vivo, rat; settings: grafts washed with Ringer's solution containing a higher concentration of bilirubin than 5 to 10 μmol/L
Protocol: as §1, §2

liver grafts [6] = experiment: CO fluxes in hepatic venous perfusate of ex vivo liver grafts (spectrophotometer); set-up: species or system rat
Protocol: (§3) Male Wistar rats of 190-230 g were allowed to take pellet chow and water without any restriction and then fasted for 6 hours. Subsequently, the rats were intraperitoneally injected with 40 μmol/kg hemin, a strong HO-1 inducer, and then fasted for 18 hours. […] As a hemin-untreated control, rats injected with physiological saline were fasted for 24 hours and then used for the experiment.
(§4) The rats injected with hemin or physiological saline were anesthetized by intraperitoneal injection of pentobarbital sodium (40 mg/kg body weight) and a PE-10 catheter for bile sample collection was inserted into the common bile duct of each rat. A 16-gauge catheter was inserted into the portal vein and 20 ml lactated Ringer's solution kept at 4° C. was passed through the catheter. Subsequently, rat livers were perfused with 20 ml University of Wisconsin solution (UW solution) of 4° C., excised and then preserved in the same solution at 4° C. for 16 hours. […]
(§5) The grafts prepared in Example 1 were measured for HO-1 protein expression by Western blot analysis, as described in an earlier document (see Document 20). CO fluxes in hepatic venous flow were also measured with a spectrophotometer according to a previously reported method of the inventors (see Document 16). […]

liver grafts [7] = experiment: Bilirubin-IXα concentration in bile of ex vivo reperfused liver grafts (ELISA, antibody 24G7); set-up: species or system rat
Protocol: as §4, with “hours. Since acute oxidative stress would eventually occur, as judged by intracellular hydroperoxide production which occurred concurrently with a reduction of bile formation, a time period of 16 hours was selected for preservation purposes.” for “hours.”
In the hemin-treated liver grafts from Example 1, after 16-hour cold preservation (Hemin/C16), bile samples were collected from the common bile duct every 5 minutes during 40 minute reperfusion. The bile samples collected at 30 minutes after initiation of reperfusion were also measured for their bilirubin-IXα concentration by enzyme-linked immunosorbent assay detection using the monoclonal antibody 24G7 capable of recognizing both conjugated and unconjugated bilirubin fractions, as described in earlier documents (see Documents 21 and 22). […]

[8] = hemin-treated rats, n=4; cited from earlier work
HO-1 protein = HO-1 protein expression in liver grafts by Western blot analysis; set-up: species or system rat; settings: hemin-treated (40 μmol/kg i.p.) vs hemin-untreated grafts
Protocol: as §3, §4, §5

liver grafts [9] = experiment: Bile salts and phospholipids in bile of ex vivo reperfused liver grafts (enzyme inhibition assay); set-up: species or system rat; settings: hemin-treated C16 grafts, 30 minute reperfusion, concentration of 5 μmol/L or less
Protocol: To examine whether bilirubin and/or CO could recover the HO-1-inducing effect inhibited by ZnPP, a strong HO activity inhibitor, the following experiment was carried out. The grafts were reperfused with carbogen-saturated Krebs-Henseleit buffer (pH 7.4, 37° C.) supplemented with bilirubin (Sigma Chemical, Co.) and/or CO in combination with 1 μmol/L ZnPP. […] The total amounts of bile salts and phospholipids in bile samples were measured by enzyme inhibition assay according to a reported method (see Document 23).
An attempt was made to examine dose-dependent effects of bilirubin and/or CO during co-perfusion. […] After being cold-preserved for 16 hours, the hemin-treated grafts were reperfused for 30 minutes in the presence of ZnPP using reperfusate containing various concentrations of bilirubin and/or CO, and then measured for the levels of bile output, bile salts and phospholipids in bile from the grafts, which were determined in percentages relative to those obtained by reperfusion in the absence of ZnPP.

[10] = hemin-treated grafts, 16-hour cold preservation, reperfused with 1 μmol/L of the protoporphyrin

With `C=CC1=C(C)/C(=C/c2[nH]c(Cc3[nH]c(/C=C4\NC(=O)C(C)=C4C=C)c(C)c3CCC(=O)O)c(CCC(=O)O)c2C)NC1=O` [bilirubin] the “rats able to survive for 24 hours after transplantation” value (liver grafts [1]) was “None”, the “accessibility of bilirubin to liver parenchymal cells (immune reaction)” value (liver parenchymal cells; grafts washed with bilirubin-containing Ringer's solution) was “highly absorbed into liver parenchymal cells” and the “accessibility of bilirubin to liver parenchymal cells (immune reaction)” value (liver parenchymal cells; grafts washed with bilirubin-containing Ringer's solution supplemented with PPF) was “accessibility of bilirubin was canceled”. For the same compound, the “LDH release (graft damage)” value (liver grafts [2]; hemin-untreated C16 grafts, prolonged reperfusion with 5 μmol/L bilirubin-containing buffer) was “increases in LDH release”, the “adverse effect on bile secretion or cell survival” value (liver grafts [3]; hemin-treated C16 grafts, 30 minutes, 5 μmol/L bilirubin in the presence of ZnPP) was “no adverse effect” and the “bile output vs bilirubin-free control” value (liver grafts [3]; 15 minute reperfusion then 25 minutes without bilirubin) was “significant decrease”. The “bile output vs bilirubin-free control” value (liver grafts [3]; 40 minute perfusion) was “significant decrease”, the “cell injury (sAST, sALT, sLDH) at 24 hours after transplantation” value (liver grafts [4]) was “exacerbation of cell injury” and the “bile output after transplantation” value (liver grafts [5]) was “cholestasis occurred”.
For hemin, the “venous LDH release” value (liver grafts [2]; hemin-treated control, 16-hour cold preservation (Hemin/C16), no ZnPP) was “almost complete inhibition”, the bile output (liver grafts [3]; hemin-treated grafts after 16-hour cold preservation (Hemin/C16) vs hemin-untreated cold-preserved grafts (C16)) was “higher plateau; also recorded: increase in bile output” and the “time of bile output recovery after initiation of reperfusion” value (liver grafts [3]; hemin-treated grafts, 16-hour cold preservation (Hemin/C16)) was 10 min. For the same compound, the “venous CO fluxes” value (liver grafts [6]; hemin-treated (40 μmol/kg i.p.) vs hemin-untreated grafts) was “significant increases”, the “increase in hepatic venous CO fluxes” value (liver grafts [6]; hemin-treated grafts, 16-hour cold preservation with or without 30 minute reperfusion, vs hemin-untreated grafts) was roughly 3 fold and the “bilirubin fluxes in bile, relative to hemin-untreated group” value (liver grafts [7]; hemin-treated, cold-preserved 16 hours, reperfused 30 minutes) was “about 1.5 fold”. For the same compound, the “plasma bilirubin concentration in portal blood” value [8] was 3.2 ± 0.8 µmol/L and the HO-1 expression (HO-1 protein) was “significant increases”.
In the case of copper protoporphyrin-IX [CuPP], the bile output (liver grafts [3]; [10]) is reported as “substantially the same bile output”.
In the case of `[C-]#[O+]` [CO, carbon monoxide], the “recovery of ZnPP-induced reduction of bile output” value (liver grafts [3]; hemin-treated C16 grafts, 30 minute co-perfusion, 1 μmol/L ZnPP, 5 μmol/L of each test substance) is reported as “could not achieved”, the “percentage of bile output relative to reperfusion in the absence of ZnPP” value (liver grafts [3]; hemin-treated C16 grafts, ZnPP, 30 minute reperfusion, concentration of 5 μmol/L or less) is reported as “no recovery” and the “percentage of bile salts in bile relative to reperfusion in the absence of ZnPP” value (liver grafts [9]) is reported as “no recovery”. For the same compound, the “percentage of phospholipids in bile relative to reperfusion in the absence of ZnPP” value (liver grafts [9]) was “no recovery”.
In the case of `C=CC1=C(C)c2cc3[n-]c(cc4[n-]c(cc5nc(cc1n2)C(C)=C5C=C)c(C)c4CCC(=O)O)c(CCC(=O)O)c3C.[Zn+2]` [ZnPP, zinc protoporphyrin-IX], the “venous LDH release” value (liver grafts [2]) is reported as “significantly increased”, the bile output (liver grafts [3]; [10]) is reported as “reduced bile output; also recorded: canceled the effect of hemin treatment” and the “bilirubin levels in bile” value (liver grafts [7]; hemin-treated C16 grafts, co-perfusion with 1 μmol/L ZnPP compared to CuPP) is reported as “significant decrease”.
